Measured values: ChEMBL document CHEMBL5038625, “Application of the dual-tail approach for the design and synthesis of novel Thiopyrimidine-Benzenesulfonamide hybrids as selective carbonic anhydrase inhibitors” (Eur J Med Chem, 2022)

What was measured:
MOLT-4 = assay: Antiproliferative activity against human MOLT-4 cells assessed as cell growth inhibition at 10 uM incubated for 24 hrs by sulforhodamine B assay; assay type: functional; settings: read-out: GI
SN12C = assay: Antiproliferative activity against human SN12C cells assessed as cell growth inhibition at 10 uM incubated for 24 hrs by sulforhodamine B assay; assay type: functional; settings: read-out: GI
CCRF-CEM = assay: Antiproliferative activity against human CCRF-CEM cells assessed as cell growth inhibition at 10 uM incubated for 24 hrs by sulforhodamine B assay; assay type: functional; settings: read-out: GI
NCI-H226 = assay: Antiproliferative activity against human NCI-H226 cells assessed as cell growth inhibition at 10 uM incubated for 24 hrs by sulforhodamine B assay; assay type: functional; settings: read-out: GI
MCF7 [1] = assay: Induction of apoptosis in human MCF cells assessed as early apoptotic cells measured after 48 hrs by Annexin-V-FITC/propidium iodide staining based flow cytometry (reference value: 0.09%); assay type: functional
SNB-75 = assay: Antiproliferative activity against human SNB-75 cells assessed as cell growth inhibition at 10 uM incubated for 24 hrs by sulforhodamine B assay; assay type: functional; settings: read-out: GI
MCF7 [2] = assay: Induction of apoptosis in human MCF cells assessed as necrotic cells measured after 48 hrs by Annexin-V-FITC/propidium iodide staining based flow cytometry (reference value: 0.94%); assay type: functional
SNB-19 = assay: Antiproliferative activity against human SNB-19 cells assessed as cell growth inhibition at 10 uM incubated for 24 hrs by sulforhodamine B assay; assay type: functional; settings: read-out: GI
K562 = assay: Antiproliferative activity against human K562 cells assessed as cell growth inhibition at 10 uM incubated for 24 hrs by sulforhodamine B assay; assay type: functional; settings: read-out: GI
U-251 = assay: Antiproliferative activity against human U-251 cells assessed as cell growth inhibition at 10 uM incubated for 24 hrs by sulforhodamine B assay; assay type: functional; settings: read-out: GI
786-0 = assay: Antiproliferative activity against human 786-0 cells assessed as cell growth inhibition at 10 uM incubated for 24 hrs by sulforhodamine B assay; assay type: functional; settings: read-out: GI
A498 = assay: Antiproliferative activity against human A498 cells assessed as cell growth inhibition at 10 uM incubated for 24 hrs by sulforhodamine B assay; assay type: functional; settings: read-out: GI
HCT-116 = assay: Antiproliferative activity against human HCT-116 cells assessed as reduction in cell viability incubated for 24 hrs by sulforhodamine B assay; settings: HCT-116, 24 h
MCF7 [3] = assay: Cell cycle arrest in human MCF7 cells assessed as accumulation at sub G1 phase incubated for 48 hrs by propidium iodide staining based flow cytometric analysis (reference value: 1.09 %); assay type: functional
MDA-MB-231 [4] = assay: Induction of apoptosis in human MDA-MB-231 cells assessed as viable cells measured after 48 hrs by Annexin-V-FITC/propidium iodide staining based flow cytometry (reference value: 97.93%); assay type: functional
SK-MEL-28 = assay: Antiproliferative activity against human SK-MEL-28 cells assessed as cell growth inhibition at 10 uM incubated for 24 hrs by sulforhodamine B assay; assay type: functional; settings: read-out: GI
MDA-MB-231 [5] = assay: Induction of apoptosis in human MDA-MB-231 cells assessed as necrotic cells measured after 48 hrs by Annexin-V-FITC/propidium iodide staining based flow cytometry (reference value: 1.13%); assay type: functional
MDA-MB-231 [6] = assay: Antiproliferative activity against human MDA-MB-231 cells assessed as cell growth inhibition at 10 uM incubated for 24 hrs by sulforhodamine B assay; assay type: functional; settings: read-out: GI
SK-MEL-5 = assay: Antiproliferative activity against human SK-MEL-5 cells assessed as cell growth inhibition at 10 uM incubated for 24 hrs by sulforhodamine B assay; assay type: functional; settings: read-out: GI
IGROV-1 = assay: Antiproliferative activity against human IGROV-1 cells assessed as cell growth inhibition at 10 uM incubated for 24 hrs by sulforhodamine B assay; assay type: functional; settings: read-out: GI
NCI-H23 = assay: Antiproliferative activity against human NCI-H23 cells assessed as cell growth inhibition at 10 uM incubated for 24 hrs by sulforhodamine B assay; assay type: functional; settings: read-out: GI
HCT-15 = assay: Antiproliferative activity against human HCT-15 cells assessed as cell growth inhibition at 10 uM incubated for 24 hrs by sulforhodamine B assay; assay type: functional; settings: read-out: GI
HT-29 = assay: Antiproliferative activity against human HT-29 cells assessed as reduction in cell viability incubated for 24 hrs by sulforhodamine B assay; settings: HT-29, 24 h
MDA-MB-231 [7] = assay: Induction of apoptosis in human MDA-MB-231 cells assessed as late apoptotic cells measured after 48 hrs by Annexin-V-FITC/propidium iodide staining based flow cytometry (reference value: 0.91%); assay type: functional
LOX IMVI = assay: Antiproliferative activity against human LOX IMVI cells assessed as cell growth inhibition at 10 uM incubated for 24 hrs by sulforhodamine B assay; assay type: functional; settings: read-out: GI
T47D = assay: Antiproliferative activity against human T47D cells assessed as reduction in cell viability incubated for 24 hrs by sulforhodamine B assay; assay type: functional, cell-based
Hs-578T = assay: Antiproliferative activity against human HS-578T cells assessed as cell growth inhibition at 10 uM incubated for 24 hrs by sulforhodamine B assay; assay type: functional; settings: read-out: GI
[8] = Antiproliferative activity against human […] cells assessed as cell growth inhibition at 10 uM incubated for 24 hrs by sulforhodamine B assay; assay type: functional; settings: read-out: GI
NCI/ADR-RES [9] = assay: Antiproliferative activity against human NCI-ADR-RES cells assessed as cell growth inhibition at 10 uM incubated for 24 hrs by sulforhodamine B assay; assay type: functional; settings: read-out: GI
MDA-MB-468 = assay: Antiproliferative activity against human MDA-MB-468 cells assessed as cell growth inhibition at 10 uM incubated for 24 hrs by sulforhodamine B assay; assay type: functional; settings: read-out: GI
DU-145 = assay: Antiproliferative activity against human DU-145 cells assessed as cell growth inhibition at 10 uM incubated for 24 hrs by sulforhodamine B assay; assay type: functional; settings: read-out: GI
NCI-H522 = assay: Antiproliferative activity against human NCI-H522 cells assessed as cell growth inhibition at 10 uM incubated for 24 hrs by sulforhodamine B assay; assay type: functional; settings: read-out: GI
HCC 2998 = assay: Antiproliferative activity against human HCC 2998 cells assessed as cell growth inhibition at 10 uM incubated for 24 hrs by sulforhodamine B assay; assay type: functional; settings: read-out: GI
NCI/ADR-RES [10] = assay: Antiproliferative activity against human NCI-ADR-RES cells assessed as reduction in cell viability incubated for 24 hrs by sulforhodamine B assay
OVCAR-5 = assay: Antiproliferative activity against human OVCAR-5 cells assessed as cell growth inhibition at 10 uM incubated for 24 hrs by sulforhodamine B assay; assay type: functional; settings: read-out: GI
SW-620 = assay: Antiproliferative activity against human SW-620 cells assessed as cell growth inhibition at 10 uM incubated for 24 hrs by sulforhodamine B assay; assay type: functional; settings: read-out: GI
UO-31 = assay: Antiproliferative activity against human UO-31 cells assessed as cell growth inhibition at 10 uM incubated for 24 hrs by sulforhodamine B assay; assay type: functional; settings: read-out: GI
MDA-MB-231 [11] = assay: Induction of apoptosis in human MDA-MB-231 cells assessed as early apoptotic cells measured after 48 hrs by Annexin-V-FITC/propidium iodide staining based flow cytometry (reference value: 0.02%); assay type: functional
KM12 = assay: Antiproliferative activity against human KM12 cells assessed as cell growth inhibition at 10 uM incubated for 24 hrs by sulforhodamine B assay; assay type: functional; settings: read-out: GI
COLO 205 = assay: Antiproliferative activity against human COLA 205 cells assessed as reduction in cell viability incubated for 24 hrs by sulforhodamine B assay; settings: COLO 205, 24 h

COc1ccc(OC)c(-c2nc(SCC(=O)c3ccc(Br)cc3)nc(Nc3ccc(S(N)(=O)=O)cc3)c2C#N)c1
inhibition of growth at 10 µM (MOLT-4): 71.5% | inhibition of growth at 10 µM (SN12C): 50.9% | inhibition of growth at 10 µM (CCRF-CEM): 64.7% | inhibition of growth at 10 µM (NCI-H226): 50% | Activity (MCF7 [1]): 0.73% | inhibition of growth at 10 µM (SNB-75): 77.8% | Activity (MCF7 [2]): 7.15% | inhibition of growth at 10 µM (SNB-19): 50.1% | inhibition of growth at 10 µM (K562): 77.5% | inhibition of growth at 10 µM (U-251): 62.4% | inhibition of growth at 10 µM (786-0): 58.6% | inhibition of growth at 10 µM (A498): 73.6% | IC50 (HCT-116): 2.5 µM | Activity (MCF7 [3]): 35.5% | Activity (MDA-MB-231 [4]): 87.15% | inhibition of growth at 10 µM (SK-MEL-28): 42.3% | Activity (MDA-MB-231 [5]): 7.18% | inhibition of growth at 10 µM (MDA-MB-231 [6]): 37% | inhibition of growth at 10 µM (SK-MEL-5): 44% | inhibition of growth at 10 µM (IGROV-1): 45.3% | inhibition of growth at 10 µM (NCI-H23): 41.6% | inhibition of growth at 10 µM (HCT-15): 77.9% | IC50 (HT-29): 4.3 µM | Activity (MDA-MB-231 [7]): 5.2% | inhibition of growth at 10 µM (LOX IMVI): 67.4% | IC50 (T47D): 2.4 µM | inhibition of growth at 10 µM (Hs-578T): 86.6% | inhibition of growth at 10 µM [8]: 18.4% | inhibition of growth at 10 µM (NCI/ADR-RES [9]): 25.6% | inhibition of growth at 10 µM (MDA-MB-468): 56.1% | inhibition of growth at 10 µM (DU-145): 44.9% | inhibition of growth at 10 µM (NCI-H522): 52% | inhibition of growth at 10 µM (HCC 2998): 29.1% | IC50 (NCI/ADR-RES [10]): 33.7 µM | inhibition of growth at 10 µM (OVCAR-5): 26.7% | inhibition of growth at 10 µM (SW-620): 64% | inhibition of growth at 10 µM (UO-31): 40.8% | Activity (MDA-MB-231 [11]): 0.48% | inhibition of growth at 10 µM (KM12): 79.1% | IC50 (COLO 205): 13.3 µM
